These results are taken from patent US20160279297A1, “METHODS FOR INHIBITING STENOSIS, OBSTRUCTION, OR CALCIFICATION OF A STENTED HEART VALVE OR BIOPROSTHESIS” (CONCIEVALVE LLC, priority 2013, published 2016).

Assay [1] is described as follows: rabbit model of experimental hypercholesterolemia, serum levels. The format is in vivo. Conditions: cholesterol-fed rabbits, atorvastatin 3.0 mg/kg daily orally. From the text: An experimental animal was developed to test for the dosing of the atorvastatin to reduce the inflammation and also the pannus formation on the valve leaflet. The experimental procedure is as follows, Male New Zealand white rabbits weighing 2.5-3.0 kg were assigned to a control (N=10) or 0.5% cholesterol-fed group (N=10) or to a cholesterol-fed and atorvastatin group (N=10). All animals were fed ad libitum for 12 weeks. Control rabbits were fed a standard diet. Cholesterol-fed animals received a diet supplemented with 0.5% (w/w) cholesterol (Purina Mills, Woodmont, Ind.), and the cholesterol-fed and atorvastatin group were given atorvastatin 3.0 mg/kg daily orally for the statin treatment arm^1. Prior to the initiation of the diet the rabbits underwent surgical implantation of bovine pericardial bioprosthetic valve tissue (Perimount, Edwards, Irvine Calif.) using intramuscular ketamine/xylazine (40/5 mg/kg). Following this 12-week period, the rabbits were anesthetized using intramuscular ketamine/xylazine (40/5 mg/kg) and then underwent euthanasia with intracardiac administration of 1 ml of Beuthanasia. Immediately after removal from the subcutaneous implantation site the bioprosthetic valves were fixed in 4% buffered formalin for 24 hours and then embedded in paraffin. Paraffin embedded sections (6 μm) were cut and stained with Masson Trichrome stain for histopathologic exam. […]

Assay [2] has as its system bovine pericardial bioprosthetic valve tissue. In words: rabbit model with subcutaneously implanted bioprosthetic valve tissue: RNA expression and pannus formation. Type of assay: in vivo.
Another assay relates to Mesenchymal valve cells. Briefly: tritiated thymidine incorporation, PDGF-stimulated cell proliferation. Type of assay: cell-based. As for the experimental part: Mesenchymal valve cells were isolated from the cardiac aortic valves by collagenase digestion. Cells were cultured in medium 199 with 10% (v/v) heat-inactivated fetal bovine serum at 37 C in a humidified atmosphere of 5% CO2 in air. Cells were utilized between the 3rd and 7th passage. Mesenchymal cells were grown to confluence in 24-well plates and then growth-arrested by incubation in serum-free medium for 24 hours. The test materials were added to the wells and incubated for 18 hours. Test materials include PDGF at concentrations (10-40 ug/ml) PDGF Sigma in combination with a MEK inhibitor (PD0325901 Mek Inhibitor) (2.5-10 ug/ml). The wells were pulsed for 4 hours with 1 μCi/well of tritiated thymidine. Newly synthesized DNA will be then identified by incorporation of radioactivity into acid-precipitated cellular material. All samples were assayed in quadruplicate wells. The positive control wells were given PDGF (10 ug/ml) Sigma (St. Louis, Mo.), the negative control wells received serum-free medium.
For orientation: Uptake of a labelled nucleoside into DNA is a usual measure of proliferation.

A further assay concerns p42/44. Briefly: p42/44 protein expression by western blot. Type of assay: cell-based. Conditions: FIG. 16 Panel C.
Another assay concerns neointima hyperplasia. Conditions: stent coating, at four weeks; cited from earlier work.
For assay [3] the following is noted: from biodegradable polylactic acid, follow-up of four years; cited from earlier work.
Setting [4] is: atorvastatin at 80 mg per day equivalent to human dosing, FIG. 15.

As for `CC(C)c1c(C(=O)Nc2ccccc2)c(-c2ccccc2)c(-c2ccc(F)cc2)n1CC[C@@H](O)C[C@@H](O)CC(=O)O` [Atorvastatin], in assay [1] (12 weeks), the hsCRP serum levels is reported as 7.8±8.7. Further, the serum cholesterol levels in assay [1] (12 weeks (equivalent to 80 mg a day for humans)) was 824.0 ± 152.1 mg/dL. In addition, in assay [2] (setting [4]), the “stem cell RNA expression on the valves” value is listed as “reduction” and the “stem cell mediated pannus formation” value is on record as “reduction”. Moreover, in assay [2] (previous experiments, 20 mg a day and 40 mg a day), the “therapeutic benefit at the lower dosing ranges” value is given as “zero therapeutic benefit”. Besides, the “ckit stem cell adhering to the valve” value in assay [2] (rabbit, in vivo) is reported as “reduces”.
As to `O=C(NOC[C@H](O)CO)c1ccc(F)c(F)c1Nc1ccc(I)cc1F` [PD0325901], the “dosing range with inhibition effect on cell proliferation” value in the assay on Mesenchymal valve cells (PDGF 10 ug/ml induced proliferation, tested range 2.5-10 ug/ml, 18 hours, FIG. 16 Panel B) is 5 to 10 µg/mL. The p42/44 protein expression entry in the assay with p42/44 is “inhibition”.
Turning to `CC(=O)O[C@H]1C(=O)[C@@]2(C)[C@H]([C@H](OC(=O)c3ccccc3)[C@]3(O)C[C@H](OC(=O)[C@H](O)[C@@H](NC(=O)c4ccccc4)c4ccccc4)C(C)=C1C3(C)C)[C@]1(OC(C)=O)CO[C@@H]1C[C@@H]2O` [Paclitaxel], the neointima hyperplasia entry with neointima hyperplasia is “inhibits”.
For `CCOCCO[C@@H]1CC[C@@H](C[C@@H](C)[C@@H]2CC(=O)[C@H](C)/C=C(\C)[C@@H](O)[C@@H](OC)C(=O)[C@H](C)C[C@H](C)/C=C/C=C/C=C(\C)[C@@H](OC)C[C@@H]3CC[C@@H](C)[C@@](O)(O3)C(=O)C(=O)N3CCCC[C@H]3C(=O)O2)C[C@H]1OC` [biolimus], the “major adverse clinical events versus sirolimus eluting stents” value in assay [3] is “not inferior and potentially better”.
Turning to PDGF, in the assay on Mesenchymal valve cells (PDGF dose response 10-40 ug/ml, FIG. 16 Panel A), the mesenchymal cell proliferation result is “proliferating”. Moreover, in the assay on p42/44, the p42/44 protein expression entry was “increase”.
